Assay: Solid-state stability of the crystalline form under stress conditions
Assay type: physicochemical
Details: 60±5° C. for 24 hours; 10 tons of pressure; UV light at 254nm for 24 hours; 75±5% relative humidity for 24 hours
Procedure: In third aspect of third embodiment, crystalline Form-R of Tafamidis of formula (I) is stable under stress conditions at 60±5° C. for 24 hours, 10 tons of pressure, under UV light at 254nm for 24 hours and higher humidity conditions of 75±5% relative humidity for 24 hours.

## O=C(O)c1ccc2nc(-c3cc(Cl)cc(Cl)c3)oc2c1 [Form-R, 2-(3,5-dichlorophenyl)-1,3-benzoxazole-6-carboxylic acid]
  polymorphic stability under stress conditions (does not convert to any other polymorphic form): stable

From patent publication US20220251052A1, “IMPROVED PROCESS FOR THE PREPARATION OF 2-(3,5-DICHLOROPHENYL)-1,3-BENZOXAZOLE-6-CARBOXYLIC ACID OR ITS PHARMACEUTICALLY ACCEPTABLE SALTS AND POLYMORPHS THEREOF” (MSN LABORATORIES PRIVATE LIMITED, R&D CENTER, priority 2019, published 2022)
